Measurements from PMC4715937 (Cancer research, 2016).

Assays:
Assay type in all cases: cell-based, human
[1] = system: Heme oxygenase-1 (HMOX1); test: HMOX1 quantitative PCR and ELISA in DLBCL cells; conditions: Ly19 cells, inhibitor at 4μM, 24 hours
[2] = system: Ly19 cells; test: MTS assay of Ly19 cells with pro-oxidant and NF-κB inhibitor; conditions: 3 days; PS-1145 4 μM, pyocyanin 350 μM, single agents
[3] = system: TMD8 cells; test: MTS cell proliferation assay, TMD8 cells; conditions: antibody alone, 48 hours

Molecule | HMOX1 induction in the presence of pyocyanin [1] | Ly19 growth [2] | cell growth of TMD8 [3]
O=C(Nc1cc(Cl)cc2c1[nH]c1cnccc12)c1cccnc1 [PS-1145] | reduced HMOX1 induction | no effect on Ly19 growth | 
Cn1c2cccc(=O)c-2nc2ccccc21 [pyocyanin] |  | strongly inhibited lymphoma cell growth | 
ADALIMUMAB |  |  | inhibited cell growth
